Experimental data taken from patent publication US8710060B2, “Piperazinyl methyl phenyl cyclohexane compound” (Daiichi Sankyo Company, Limited, priority 2010, dated 2014).
Where a name gives a salt, the structure may show the parent alone.

The molecules below were run on longitudinal muscle strip from the duodenal smooth muscle layer (assay: Measurement of intestinal contractile activity (Magnus organ bath, cumulative dosing)). Conditions: Oryctolagus cuniculus; male NZW rabbit duodenal longitudinal muscle strip, Krebs solution 31° C., test compound 0.01 nM to 10 μM cumulative dosing; contraction by carbachol 10 μM taken as 100%.
Procedure: Bioactivity Test (Measurement of Intestinal Contractile Activity)
A male NZW rabbit (body weight: 2.5 to 3.0 kg, KITAYAMA LABES CO., LTD., NAGANO) was used.
Carbachol (carbamylcholine chloride, Sigma-Aldrich Japan K.K.) was purchased and used. Each test compound was dissolved in dimethyl sulfoxide (DMSO, Sigma-Aldrich Japan K.K.), and then suspended in physiological saline. Carbachol was dissolved in physiological saline.
(3) Experimental Method and Results
Pentobarbital sodium (Kyoritsu Seiyaku Corporation, Osaka) was administered to the rabbit through the auricular vein, and the rabbit was euthanized by exsanguination under anesthesia. Thereafter, the duodenum was excised from the rabbit and rapidly rinsed with Krebs solution (NaCl 120.0 mM, KCl 4.7 mM, CaCl2 2.4 mM, KH2PO4 1.0 mM, MgSO4 1.2 mM, NaHCO3 24.5 mM, and glucose 5.6 mM, pH 7.4). Then, a longitudinal muscle strip (length: 10 mm, width: 3 mm) was prepared from the duodenal smooth muscle layer obtained by stripping off the mucosal layer from the duodenum. The prepared strip was mounted in an organ bath and contained in 20 mL of Krebs solution gassed with 95% O2 and 5% CO2 at 31° C. so as to suppress excessive locomotion, and a tension of 1 g was applied thereto. The strip was left to stand for 1 hour or more while replacing the Krebs solution every 15 minutes until the strip was equilibrated. Before starting the experiment, stimulation with carbachol at 10 μM was repeatedly applied until a reproducible contraction was obtained. The contractile activity was measured with an FD pickup (TB-611T, Nihon Kohden Corporation, Tokyo) and recorded on a pen recorder (RECTI HORIZ-8K, Sanei, Tokyo). Each test compound was added to the Krebs solution at 0.01 nM to 10 μM, and the strip was contracted by cumulative dosing. The contractile activity at each concentration was determined when the contractile activity at the time of stimulation with carbachol at 10 μM was taken as 100%, and the EC50 value of each test compound was determined. The EC50 values are shown below.
Molecule `C[C@H]1CN(Cc2ccc(N(C)C(=O)[C@H]3CC[C@H](Oc4ccc(F)cc4)CC3)cc2)CCN1` [Example 1, Trans-4-(4-fluorophenoxy)-N-methyl-N-(4-{[(3S)-3-methylpiperazin-1-yl]methyl}phenyl)cyclohexanecarboxamide] has an EC50 of 28 nM. `Cc1cc(N(C)C(=O)[C@H]2CC[C@H](Oc3ccc(F)cn3)CC2)ccc1CN1CCN[C@@H](C)C1` [Example 4, Trans-4-[(5-fluoropyridin-2-yl)oxy]-N-methyl-N-(3-methyl-4-{[(3S)-3-methylpiperazin-1-yl]methyl}phenyl)cyclohexanecarboxamide hydrochloride] was tested, and the EC50 was 2.5 nM. `Cc1cc(N(C)C(=O)[C@H]2CC[C@H](Oc3cccc(CO)c3)CC2)ccc1CN1CCN[C@@H](C)C1` [Example 5, Trans-4-[3-(hydroxymethyl)phenoxy]-N-methyl-N-(3-methyl-4-{[(3S)-3-methylpiperazin-1-yl]methyl}phenyl)cyclohexanecarboxamide hydrochloride] was tested, and the EC50 was 7.3 nM. For `CCOC(=O)Cc1cccc(O[C@H]2CC[C@H](C(=O)N(C)c3ccc(CN4CCN[C@@H](C)C4)c(C)c3)CC2)c1` [Example 16, Ethyl [3-({trans-4-[methyl(3-methyl-4-{[(3S)-3-methylpiperazin-1-yl]methyl}phenyl)carbamoyl]cyclohexyl}oxy)phenyl]acetate hydrochloride], the EC50 was 2.4 nM. In the case of `Cc1cc(N(C)C(=O)[C@H]2CC[C@H](Oc3ccnc(C#N)c3)CC2)ccc1CN1CCN[C@@H](C)C1` [Example 22, Trans-4-[(2-cyanopyridin-4-yl)oxy]-N-methyl-N-(3-methyl-4-{[(3S)-3-methylpiperazin-1-yl]methyl}phenyl)cyclohexanecarboxamide hydrochloride], the EC50 is reported as 4.8 nM. `Cc1cc(N(C)C(=O)[C@H]2CC[C@H](Oc3cccc(CC(=O)NC(C)C)c3)CC2)ccc1CN1CCN[C@@H](C)C1` [Example 30, Trans-4-{3-[2-(isopropylamino)-2-oxoethyl]phenoxy}-N-methyl-N-(3-methyl-4-{[(3S)-3-methylpiperazin-1-yl]methyl}phenyl)cyclohexanecarboxamide hydrochloride] showed an EC50 of 3 nM. `Cc1cc(N(C)C(=O)[C@H]2CC[C@H](Oc3cccc(CC(=O)NC(C)(C)C)c3)CC2)ccc1CN1CCN[C@@H](C)C1` [Example 33, Trans-4-{3-[2-(tert-butylamino)-2-oxoethyl]phenoxy}-N-methyl-N-(3-methyl-4-{[(3S)-3-methylpiperazin-1-yl]methyl}phenyl)cyclohexanecarboxamide] showed an EC50 of 1.5 nM. Work on `Cc1cc(N(C)C(=O)[C@H]2CC[C@H](Oc3cccc(CC(=O)N(C)C(C)C)c3)CC2)ccc1CN1CCN[C@@H](C)C1` [Example 34, Trans-4-(3-{2-[isopropyl(methyl)amino]-2-oxoethyl}phenoxy)-N-methyl-N-(3-methyl-4-{[(3S)-3-methylpiperazin-1-yl]methyl}phenyl)cyclohexanecarboxamide] yielded an EC50 of 2.1 nM. Molecule `Cc1cc(N(C)C(=O)[C@H]2CC[C@H](Oc3cccc(CS(C)(=O)=O)c3)CC2)ccc1CN1CCN[C@@H](C)C1` [Example 42, hydrochloride] has an EC50 of 4.8 nM. Work on `COCCOCc1cccc(O[C@H]2CC[C@H](C(=O)N(C)c3ccc(CN4CCN[C@@H](C)C4)c(C)c3)CC2)c1` [Example 53, Trans-4-{3-[(2-methoxyethoxy)methyl]phenoxy}-N-methyl-N-(3-methyl-4-{[(3S)-3-methylpiperazin-1-yl]methyl}phenyl)cyclohexanecarboxamide hydrochloride] yielded an EC50 of 6.8 nM. With `Cc1cc(N(C)C(=O)[C@H]2CC[C@H](Oc3cccc(COC[C@@H](C)O)c3)CC2)ccc1CN1CCN[C@@H](C)C1` [Example 56, Trans-4-[3-({[(2R)-2-hydroxypropyl]oxy}methyl)phenoxy]-N-methyl-N-(3-methyl-4-{[(3S)-3-methylpiperazin-1-yl]methyl}phenyl)cyclohexanecarboxamide hydrochloride] the EC50 was 1.2 nM. With `Cc1cc(N(C)C(=O)[C@H]2CC[C@H](Oc3cccc(COCC(C)(C)O)c3)CC2)ccc1CN1CCN[C@@H](C)C1` [Example 57, Trans-4-{3-[(2-hydroxy-2-methylpropoxy)methyl]phenoxy}-N-methyl-N-(3-methyl-4-{[(3S)-3-methylpiperazin-1-yl]methyl}phenyl)cyclohexanecarboxamide hydrochloride] the EC50 was 11.3 nM. `Cc1cc(N(C)C(=O)[C@H]2CC[C@H](Nc3cccc(COCC(C)(C)O)c3)CC2)ccc1CN1CCN[C@@H](C)C1` [Example 58, Trans-4-({3-[(2-hydroxy-2-methylpropoxy)methyl]phenyl}amino)-N-methyl-N-(3-methyl-4-{[(3S)-3-methylpiperazin-1-yl]methyl}phenyl)cyclohexanecarboxamide hydrochloride] showed an EC50 of 0.9 nM.
